Laboratory results reported in publication PMC7508162 (Frontiers in Pharmacology, 2020).

What was measured:
human NPP5 = target: T1, human NPP5 (Homo sapiens, UniProt Q9UJA9); experiment: NPP5 assay with ϵ-NAD+ as substrate; type: biochemical; conditions: for inhibition at 10 µM: 10 µM test compound; for Ki: 20 µM ϵ-NAD+, read-out: Ki ± SEM
T1 construct: the catalytic domains of the enzymes were amplified and sub-cloned into the expression vector pACGP67 A/B; 9xHis (C); made in house; host or cells: Sf9 insect cells (baculovirus, pACGP67 A/B)
T1 sequence (Q9UJA9 25-431 limits assumed): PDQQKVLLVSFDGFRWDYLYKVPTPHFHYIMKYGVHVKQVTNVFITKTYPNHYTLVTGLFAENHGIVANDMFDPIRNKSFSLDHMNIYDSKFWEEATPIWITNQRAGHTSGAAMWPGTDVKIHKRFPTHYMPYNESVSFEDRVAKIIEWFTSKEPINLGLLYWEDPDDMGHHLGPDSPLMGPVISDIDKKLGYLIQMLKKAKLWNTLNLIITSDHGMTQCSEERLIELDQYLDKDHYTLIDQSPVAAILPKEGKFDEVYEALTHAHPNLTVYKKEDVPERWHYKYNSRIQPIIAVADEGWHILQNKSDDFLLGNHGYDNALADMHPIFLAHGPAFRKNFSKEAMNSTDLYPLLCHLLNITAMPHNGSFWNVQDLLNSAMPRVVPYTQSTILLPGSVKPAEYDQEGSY
Text: (§1) The cDNAs of the human enzymes NPP1, NPP3, NPP5, CD38 and CD73 (Genbank accession no. NM_006258, NM_005021, NM_021572, NM_ 001775, and NM_002526, respectively) were obtained from Origene (Rockville, USA). Soluble enzymes were produced as previously reported with some modifications ([Lee et al., 2015]; [Junker et al., 2019]). Briefly, the catalytic domains of the enzymes were amplified and sub-cloned into the expression vector pACGP67 A/B modified with the addition of 9 x histidine tag (His-tag) at the C-terminus (except for NPP1). The plasmids were transfected in Sf9 insect cells using Cellfectin™ II Reagent (Thermo Fisher Scientific, MA, USA) and ProEasy™ baculovirus linearized DNA (Cat.#A10S, AB Vector, LLC). Protein expression was conducted for 48 h at 27°C. The signal peptide sequence of the expression vector shuttled the proteins into the supernatant. The supernatant medium was collected, and the enzymes were purified using HisPur™ Ni^2+-NTA spin columns according to the manufacturer’s protocol. The protein concentration was determined by the method previously described by [Lowry et al. (1951)].
(§2) The assays were performed in analogy to published procedures ([Blacher et al., 2015]). The enzymatic activity of human NPP3 and NPP5 (soluble forms expressed in insect cells and purified as previously described ([Lee et al., 2015]; [Lopez et al., 2020]) was measured using 1,N^6-etheno-nicotinamide adenine dinucleotide (ϵ-NAD^+) as a substrate, which is hydrolyzed to fluorescent 1,N^6-etheno-AMP (ϵ-AMP). The enzymatic reactions were performed in reaction buffer [10 mM N-cyclohexyl-2-aminoethanesulfonic acid (CHES), 2 mM CaCl2, and 1 mM MgCl2, pH 9.0 in H2O]. Purified NPP3 (90 ng) or NPP5 (400 ng), 20 µM of ϵ-NAD^+ and 10 µM of the test compound were incubated for 30 min at 37°C. The relative fluorescence at 270 nm excitation and 420 nm emission was detected by a fluorescence microplate reader (Flexstation, Medical Devices LLC. USA, Softmax Pro software to collect the data).

human NPP3 = target: T2, human NPP3 (Homo sapiens, UniProt O14638); experiment: NPP3 assay with ϵ-NAD+ as substrate; type: biochemical; conditions: for inhibition at 10 µM: 10 µM test compound; for Ki: 20 µM ϵ-NAD+, read-out: Ki ± SEM
T2 construct: the catalytic domains of the enzymes were amplified and sub-cloned into the expression vector pACGP67 A/B; 9xHis (C); made in house; host or cells: Sf9 insect cells (baculovirus, pACGP67 A/B)
T2 sequence (O14638 31-875 limits assumed): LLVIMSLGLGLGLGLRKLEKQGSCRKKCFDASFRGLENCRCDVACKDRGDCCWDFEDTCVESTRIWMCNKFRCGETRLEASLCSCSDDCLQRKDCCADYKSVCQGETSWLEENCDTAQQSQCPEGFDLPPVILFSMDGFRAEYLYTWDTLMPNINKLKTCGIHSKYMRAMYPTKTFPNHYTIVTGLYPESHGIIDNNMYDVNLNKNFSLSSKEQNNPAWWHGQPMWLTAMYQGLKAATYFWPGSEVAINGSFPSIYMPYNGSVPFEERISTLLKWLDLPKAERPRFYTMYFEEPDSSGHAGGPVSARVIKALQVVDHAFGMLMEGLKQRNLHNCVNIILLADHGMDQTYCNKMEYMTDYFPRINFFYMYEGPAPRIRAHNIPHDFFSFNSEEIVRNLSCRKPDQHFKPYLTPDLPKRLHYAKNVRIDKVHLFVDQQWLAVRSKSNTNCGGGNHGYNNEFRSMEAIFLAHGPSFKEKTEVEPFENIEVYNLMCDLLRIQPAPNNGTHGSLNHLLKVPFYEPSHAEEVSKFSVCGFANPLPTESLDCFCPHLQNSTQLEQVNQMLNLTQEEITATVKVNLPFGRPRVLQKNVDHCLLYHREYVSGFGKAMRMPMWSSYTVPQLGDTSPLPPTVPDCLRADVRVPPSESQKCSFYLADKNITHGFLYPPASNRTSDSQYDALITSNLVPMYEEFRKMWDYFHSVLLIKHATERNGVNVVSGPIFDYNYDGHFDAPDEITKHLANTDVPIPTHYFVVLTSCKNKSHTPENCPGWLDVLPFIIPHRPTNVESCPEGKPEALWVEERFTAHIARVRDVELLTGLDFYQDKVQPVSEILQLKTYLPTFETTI
Text: as §1, §2

| Compound | inhibition at 10 µM (human NPP5) | Ki (human NPP5) | inhibition at 10 µM (human NPP3) | Ki (human NPP3) |
| --- | --- | --- | --- | --- |
| CCN(CC)c1ncnc2c1ncn2[C@@H]1O[C@H](COP(=O)(O)OP(=O)(O)C(Br)(Br)P(=O)(O)O)[C@@H](O)[C@H]1O [ARL67156, (Dibromo((((((2R,3S,4R,5R)-5-(6-(diethylamino)-9H-purin-9-yl)-3,4-dihydroxytetrahydrofuran-2-yl)methoxy)-(hydroxy)-phosphoryl)oxy)(hydroxy)phosphoryl)methyl)-phosphonic Acid, reference compound] | -3% | > 10 µM | 13% | > 10 µM |
| CCCCSc1nc2c(N)ncnc2n1[C@@H]1O[C@H](COP(=O)(O)OP(=O)(O)C(Br)(Br)P(=O)(O)O)[C@@H](O)[C@H]1O [Compound 31, (((((((2R,3S,4R,5R)-5-(6-Amino-8-(butylthio)-9H-purin-9-yl)-3,4-dihydroxytetrahydrofuran-2-yl)methoxy)(hydroxy)-phosphoryl)oxy)(hydroxy)phosphoryl)dibromomethyl)-phosphonic Acid] | 2% | > 10 µM | 8% | > 10 µM |
| CCCCNc1nc2c(NC)ncnc2n1[C@@H]1O[C@H](COP(=O)(O)OP(=O)(O)C(Br)(Br)P(=O)(O)O)[C@@H](O)[C@H]1O [Compound 33, (Dibromo((((((2R,3S,4R,5R)-5-(8-(butylamino)-6-(methylamino)-9H-purin-9-yl)-3,4-dihydroxy-tetrahydrofuran-2-yl)methoxy)(hydroxy)phosphoryl)oxy)-(hydroxy)phosphoryl)methyl)-phosphonic Acid] | 1% | > 10 µM | 8% | > 10 µM |
